The text below walks through data of article doi:10.1101/2023.10.20.563248v1 (biorxiv, 2023).

Experiment [1] addresses MST4 (full-length, NanoLuc fusion) (Homo sapiens, UniProt Q9P289). The experiment in a line: NanoBRET tracer displacement, HEK293T. Type of experiment: cell-based.
A further experiment addresses LIMK1 (Homo sapiens, UniProt P53667). Kind of experiment: NanoBRET tracer displacement, HEK293T. Type of experiment: cell-based. Conditions: intact cells; […] °C, […] h; competitive with tracer. Background: Bioluminescence resonance energy transfer reports proximity on the nanometre scale.
A further experiment addresses BLK (Homo sapiens, UniProt P51451). Conditions: 1 µM; inhibitor.
The target of another experiment is MYLK (Homo sapiens, UniProt Q15746). Conditions: 1 µM; inhibitor.
A further experiment deals with CHK1 (Homo sapiens, UniProt O14757). Conditions: 1 µM; inhibitor.
Another experiment has as its target DAPK2 (Homo sapiens, UniProt Q9UIK4). Conditions: 1 µM; inhibitor.
The next experiment concerns the target JNK1 (Homo sapiens, UniProt P45983). Conditions: 1 µM; inhibitor.
For the next experiment, the target named is PHKG2 (Homo sapiens, UniProt P15735). Conditions: 1 µM; inhibitor.
The target in another experiment is EPHA8 (Homo sapiens, UniProt P29322). Conditions: 1 µM; inhibitor.
Another experiment concerns the target MAPKAPK2 (Homo sapiens, UniProt P49137). Conditions: 1 µM; inhibitor.
The target in the next experiment is PHKG1 (Homo sapiens, UniProt Q16816). Conditions: 1 µM; inhibitor.
The target in another experiment is EPHA5 (Homo sapiens, UniProt P54756). Conditions: 1 µM; inhibitor.
In another experiment the target is PKCz (Homo sapiens, UniProt Q05513). Conditions: 1 µM; inhibitor.
Another experiment addresses TEC (Homo sapiens, UniProt P42680). Conditions: 1 µM; inhibitor.
For a further experiment, the target named is KIT (Homo sapiens, UniProt P10721). Conditions: 1 µM; inhibitor.
Another experiment addresses PKMzeta (Homo sapiens, UniProt Q05513). Conditions: 1 µM; inhibitor.
A further experiment concerns the target IRAK1 (Homo sapiens, UniProt P51617). Conditions: 1 µM; inhibitor.
In another experiment the target is MASTL (Homo sapiens, UniProt Q96GX5). Conditions: 1 µM; inhibitor.
A further experiment addresses PLK1 (Homo sapiens, UniProt P53350). Conditions: 1 µM; inhibitor.
In the next experiment the target is AKT3 (Homo sapiens, UniProt Q9Y243). Conditions: 1 µM; inhibitor.
In another experiment the target is ERK5 (Homo sapiens, UniProt Q13164). Conditions: 1 µM; inhibitor.
In the next experiment the target is INSRR (Homo sapiens, UniProt P14616). Conditions: 1 µM; inhibitor.
A further experiment has as its target LIMK2 (Homo sapiens, UniProt P53671). The experiment in a line: NanoBRET tracer displacement, HEK293T. Type of experiment: cell-based.
For experiment [2], the target named is MST3 (full-length, NanoLuc fusion) (Homo sapiens, UniProt Q9Y6E0). Kind of experiment: cell-based.

ERK5, sequence (Q13164 whole entry): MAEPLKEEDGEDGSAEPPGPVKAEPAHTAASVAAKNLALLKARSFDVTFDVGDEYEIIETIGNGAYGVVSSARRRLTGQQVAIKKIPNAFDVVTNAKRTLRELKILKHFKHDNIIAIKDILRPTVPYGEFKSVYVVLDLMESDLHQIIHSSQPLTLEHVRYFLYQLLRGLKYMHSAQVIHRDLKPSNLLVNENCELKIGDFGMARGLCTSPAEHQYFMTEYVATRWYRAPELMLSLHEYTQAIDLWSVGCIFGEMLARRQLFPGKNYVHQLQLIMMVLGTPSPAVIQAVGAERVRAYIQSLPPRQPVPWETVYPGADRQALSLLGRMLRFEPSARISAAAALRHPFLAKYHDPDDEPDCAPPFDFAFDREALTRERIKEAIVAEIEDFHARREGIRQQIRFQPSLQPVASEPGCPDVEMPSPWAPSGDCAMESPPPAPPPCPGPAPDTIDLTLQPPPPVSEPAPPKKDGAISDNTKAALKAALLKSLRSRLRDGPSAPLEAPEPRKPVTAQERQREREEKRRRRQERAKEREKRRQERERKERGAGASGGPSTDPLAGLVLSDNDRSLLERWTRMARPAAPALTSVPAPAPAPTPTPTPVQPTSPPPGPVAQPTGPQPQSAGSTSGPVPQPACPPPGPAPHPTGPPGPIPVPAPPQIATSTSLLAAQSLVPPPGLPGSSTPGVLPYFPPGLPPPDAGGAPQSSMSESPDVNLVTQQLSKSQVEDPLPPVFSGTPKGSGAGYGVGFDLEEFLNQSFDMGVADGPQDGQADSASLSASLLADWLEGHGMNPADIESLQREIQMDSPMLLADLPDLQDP
EPHA8, sequence (P29322 whole entry): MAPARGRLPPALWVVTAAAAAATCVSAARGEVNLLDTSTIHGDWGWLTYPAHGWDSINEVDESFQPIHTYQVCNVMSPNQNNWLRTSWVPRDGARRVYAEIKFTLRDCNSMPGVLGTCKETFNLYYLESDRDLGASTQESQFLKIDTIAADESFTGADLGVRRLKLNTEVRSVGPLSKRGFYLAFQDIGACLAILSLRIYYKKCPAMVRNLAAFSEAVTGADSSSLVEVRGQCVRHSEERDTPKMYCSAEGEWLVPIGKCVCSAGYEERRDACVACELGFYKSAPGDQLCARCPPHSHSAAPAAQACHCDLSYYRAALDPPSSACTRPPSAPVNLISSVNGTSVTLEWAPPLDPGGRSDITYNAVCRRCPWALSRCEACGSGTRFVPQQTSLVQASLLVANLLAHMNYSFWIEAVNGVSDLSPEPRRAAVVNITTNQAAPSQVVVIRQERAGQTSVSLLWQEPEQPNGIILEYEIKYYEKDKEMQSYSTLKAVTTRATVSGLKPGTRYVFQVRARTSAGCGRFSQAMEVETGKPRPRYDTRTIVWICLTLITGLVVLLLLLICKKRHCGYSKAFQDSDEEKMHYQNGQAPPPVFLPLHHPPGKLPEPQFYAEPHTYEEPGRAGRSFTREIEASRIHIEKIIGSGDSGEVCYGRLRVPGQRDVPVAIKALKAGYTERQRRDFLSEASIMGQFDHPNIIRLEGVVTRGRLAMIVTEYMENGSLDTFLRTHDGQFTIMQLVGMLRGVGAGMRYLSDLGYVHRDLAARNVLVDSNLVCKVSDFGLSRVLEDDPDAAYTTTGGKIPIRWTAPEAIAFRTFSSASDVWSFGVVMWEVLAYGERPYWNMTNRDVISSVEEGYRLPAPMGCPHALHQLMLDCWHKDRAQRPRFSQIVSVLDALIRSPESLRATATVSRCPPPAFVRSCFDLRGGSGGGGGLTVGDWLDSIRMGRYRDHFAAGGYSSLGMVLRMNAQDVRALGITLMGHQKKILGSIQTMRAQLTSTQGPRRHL
DAPK2, sequence (Q9UIK4 whole entry): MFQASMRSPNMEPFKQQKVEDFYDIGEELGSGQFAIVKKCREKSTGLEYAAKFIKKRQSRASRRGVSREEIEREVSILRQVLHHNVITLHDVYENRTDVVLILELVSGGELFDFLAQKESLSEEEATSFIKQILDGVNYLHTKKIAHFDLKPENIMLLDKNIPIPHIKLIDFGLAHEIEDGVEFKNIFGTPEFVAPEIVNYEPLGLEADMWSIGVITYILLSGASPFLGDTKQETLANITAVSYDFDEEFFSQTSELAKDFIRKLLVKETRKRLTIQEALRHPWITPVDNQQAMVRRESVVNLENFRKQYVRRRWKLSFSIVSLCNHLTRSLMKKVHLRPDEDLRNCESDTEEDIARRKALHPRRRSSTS
LIMK2, sequence (P53671 whole entry, the tested form may be a part): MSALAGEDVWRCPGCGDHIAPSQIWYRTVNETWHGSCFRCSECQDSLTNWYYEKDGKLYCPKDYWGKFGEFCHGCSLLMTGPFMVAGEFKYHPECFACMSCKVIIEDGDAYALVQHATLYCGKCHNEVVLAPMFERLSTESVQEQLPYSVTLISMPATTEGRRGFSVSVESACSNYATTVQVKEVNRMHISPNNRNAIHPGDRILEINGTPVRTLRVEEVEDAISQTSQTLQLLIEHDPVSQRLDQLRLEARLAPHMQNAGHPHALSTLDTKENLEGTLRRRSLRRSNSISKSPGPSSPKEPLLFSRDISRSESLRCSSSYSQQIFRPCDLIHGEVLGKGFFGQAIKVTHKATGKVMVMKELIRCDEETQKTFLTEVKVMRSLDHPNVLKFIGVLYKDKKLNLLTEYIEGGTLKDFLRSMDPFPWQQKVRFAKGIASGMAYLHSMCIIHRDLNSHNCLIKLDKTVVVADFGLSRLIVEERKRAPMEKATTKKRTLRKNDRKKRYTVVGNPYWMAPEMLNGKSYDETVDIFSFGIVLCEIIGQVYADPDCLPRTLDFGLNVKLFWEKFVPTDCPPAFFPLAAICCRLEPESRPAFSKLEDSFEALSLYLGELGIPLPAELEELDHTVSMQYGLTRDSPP
MAPKAPK2, sequence (P49137 whole entry): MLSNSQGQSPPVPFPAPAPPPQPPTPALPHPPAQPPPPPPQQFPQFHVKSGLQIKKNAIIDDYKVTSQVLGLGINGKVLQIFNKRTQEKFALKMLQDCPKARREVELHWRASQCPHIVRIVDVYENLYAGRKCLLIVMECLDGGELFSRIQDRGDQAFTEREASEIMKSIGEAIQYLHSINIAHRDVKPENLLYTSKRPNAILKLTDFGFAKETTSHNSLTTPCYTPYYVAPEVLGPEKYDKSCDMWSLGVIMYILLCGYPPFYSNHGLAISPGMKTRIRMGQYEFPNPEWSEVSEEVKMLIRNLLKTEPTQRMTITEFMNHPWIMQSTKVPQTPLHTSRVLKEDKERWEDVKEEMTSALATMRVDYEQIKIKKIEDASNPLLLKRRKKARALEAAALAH
PKCz, sequence (Q05513 whole entry): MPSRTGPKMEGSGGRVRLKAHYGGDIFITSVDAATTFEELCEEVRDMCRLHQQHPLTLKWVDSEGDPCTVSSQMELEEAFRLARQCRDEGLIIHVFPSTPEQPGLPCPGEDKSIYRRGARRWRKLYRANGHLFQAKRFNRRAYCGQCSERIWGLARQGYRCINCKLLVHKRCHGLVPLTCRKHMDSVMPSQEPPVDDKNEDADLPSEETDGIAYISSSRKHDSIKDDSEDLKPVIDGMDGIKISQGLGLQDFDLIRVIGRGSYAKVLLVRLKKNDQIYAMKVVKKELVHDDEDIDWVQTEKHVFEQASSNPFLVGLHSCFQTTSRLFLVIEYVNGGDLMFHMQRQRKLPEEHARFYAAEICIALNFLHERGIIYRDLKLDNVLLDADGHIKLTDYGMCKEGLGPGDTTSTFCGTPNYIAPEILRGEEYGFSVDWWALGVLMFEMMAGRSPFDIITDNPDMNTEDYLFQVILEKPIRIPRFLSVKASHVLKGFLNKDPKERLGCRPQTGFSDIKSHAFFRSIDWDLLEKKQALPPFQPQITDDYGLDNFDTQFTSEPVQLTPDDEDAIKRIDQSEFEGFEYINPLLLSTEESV
PKMzeta, sequence (Q05513 whole entry): as above
KIT, sequence (P10721 whole entry): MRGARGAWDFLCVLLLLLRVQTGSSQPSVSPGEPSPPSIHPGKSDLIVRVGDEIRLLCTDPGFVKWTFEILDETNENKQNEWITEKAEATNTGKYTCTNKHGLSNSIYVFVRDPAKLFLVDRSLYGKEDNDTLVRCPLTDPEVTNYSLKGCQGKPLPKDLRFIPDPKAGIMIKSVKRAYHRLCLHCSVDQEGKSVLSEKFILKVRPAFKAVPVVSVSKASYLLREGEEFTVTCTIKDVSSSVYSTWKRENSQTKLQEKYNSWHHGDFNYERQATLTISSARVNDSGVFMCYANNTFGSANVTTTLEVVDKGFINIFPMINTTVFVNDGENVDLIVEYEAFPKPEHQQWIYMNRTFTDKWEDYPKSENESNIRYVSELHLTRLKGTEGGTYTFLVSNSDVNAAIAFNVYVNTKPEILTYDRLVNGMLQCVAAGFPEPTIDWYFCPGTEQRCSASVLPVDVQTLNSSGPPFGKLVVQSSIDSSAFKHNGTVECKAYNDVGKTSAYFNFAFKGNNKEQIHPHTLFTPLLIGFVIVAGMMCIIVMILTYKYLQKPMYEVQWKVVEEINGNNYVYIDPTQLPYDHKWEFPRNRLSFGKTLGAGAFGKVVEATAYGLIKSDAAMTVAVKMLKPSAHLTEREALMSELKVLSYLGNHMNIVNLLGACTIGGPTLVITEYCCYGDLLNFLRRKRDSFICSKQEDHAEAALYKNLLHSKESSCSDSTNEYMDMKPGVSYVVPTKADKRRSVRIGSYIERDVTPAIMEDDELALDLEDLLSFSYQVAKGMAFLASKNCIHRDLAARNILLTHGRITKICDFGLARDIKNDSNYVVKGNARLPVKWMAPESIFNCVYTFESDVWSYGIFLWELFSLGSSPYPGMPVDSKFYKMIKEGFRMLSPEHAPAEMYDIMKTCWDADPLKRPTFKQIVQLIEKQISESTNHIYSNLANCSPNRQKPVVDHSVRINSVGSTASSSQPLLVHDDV

With `O=C1NCCCCCNc2nc(c3ccccc3n2)Nc2cc1[nH]n2` [21c, (Z)-3^1H-2,5,11-triaza-1(4,2)-quinazolina-3(3,5)-pyrazolacycloundecaphan-4-one], the concentration giving a half-maximal response (EC50) (commonly the concentration giving half of the maximal effect) is 1400 nM in [1], 5670 ± 1020 nM on LIMK1, 1400 nM on LIMK2 and 106 nM in [2]. The “21c Remaining activity, percent of control [%]” value is given as 98.6% on BLK; 68.9% at MYLK; 112.0% at CHK1; 100.3% on DAPK2; 95.6% at JNK1; 98.0% at PHKG2. Moreover, the “21c Remaining activity, percent of control [%]” value on EPHA8 turned out to be 112.4%; on MAPKAPK2, 106.1%; at PHKG1 it was 98.0%; on EPHA5, 98.4%; at PKCz, 96.3%; on TEC, 91.4%. Also, the “21c Remaining activity, percent of control [%]” value on KIT was 69.4%; at PKMzeta, 96.2%; at IRAK1 it was 101.8%; at MASTL, 118.0%; at PLK1 it was 89.3%; on AKT3, 102.5%. Besides, the “21c Remaining activity, percent of control [%]” value was determined as 93.4% at ERK5 and 96.5% at INSRR.
